Source: ChEMBL document CHEMBL4507319 (2021)

Experiments:
Settings in all cases: Compound concentration 1.0 uM
[1] = biological target: SRSF protein kinase 1 (Homo sapiens) (UniProt Q96SB4); experiment: SRPK1(h) Eurofins kinase panel
[2] = biological target: G protein-coupled receptor kinase 5 (Homo sapiens) (UniProt P34947); experiment: GRK5(h) Eurofins kinase panel
[3] = biological target: T1, Dual specificity mitogen-activated protein kinase kinase 6 (Homo sapiens) (UniProt P52564); experiment: MKK6(h) Eurofins kinase panel
T1 sequence (whole entry): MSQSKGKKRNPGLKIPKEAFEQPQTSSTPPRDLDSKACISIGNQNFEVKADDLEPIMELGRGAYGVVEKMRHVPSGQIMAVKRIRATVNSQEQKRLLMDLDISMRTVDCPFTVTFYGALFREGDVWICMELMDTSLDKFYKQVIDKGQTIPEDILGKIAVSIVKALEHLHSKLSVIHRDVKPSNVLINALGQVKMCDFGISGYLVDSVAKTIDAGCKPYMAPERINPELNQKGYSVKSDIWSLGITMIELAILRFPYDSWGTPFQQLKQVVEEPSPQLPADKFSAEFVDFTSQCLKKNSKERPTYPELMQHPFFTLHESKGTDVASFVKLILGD

[4] = biological target: SRSF protein kinase 3 (Homo sapiens) (UniProt Q9UPE1); experiment: MSSK1(h) Eurofins kinase panel
[5] = biological target: Death-associated protein kinase 1 (Homo sapiens) (UniProt P53355); experiment: DAPK1(h) Eurofins kinase panel
[6] = biological target: Tyrosine-protein kinase receptor UFO (Homo sapiens) (UniProt P30530); experiment: Axl(h) Eurofins kinase panel
[7] = biological target: Cyclin-dependent kinase 5/CDK5 activator 1 (Homo sapiens) (UniProt Q00535+Q15078); experiment: CDK5/p35(h) Eurofins kinase panel; assay type: protein-complex assay
[8] = biological target: Serine/threonine-protein kinase PAK 6 (Homo sapiens) (UniProt Q9NQU5); experiment: PAK6(h) Eurofins kinase panel
[9] = biological target: Dual specificity protein kinase CLK4 (Homo sapiens) (UniProt Q9HAZ1); experiment: CLK4(h) Eurofins kinase panel
[10] = biological target: T2, Bone morphogenetic protein receptor type-2 (Homo sapiens) (UniProt Q13873); experiment: BMPR2(h) Eurofins kinase panel
T2 sequence (whole entry): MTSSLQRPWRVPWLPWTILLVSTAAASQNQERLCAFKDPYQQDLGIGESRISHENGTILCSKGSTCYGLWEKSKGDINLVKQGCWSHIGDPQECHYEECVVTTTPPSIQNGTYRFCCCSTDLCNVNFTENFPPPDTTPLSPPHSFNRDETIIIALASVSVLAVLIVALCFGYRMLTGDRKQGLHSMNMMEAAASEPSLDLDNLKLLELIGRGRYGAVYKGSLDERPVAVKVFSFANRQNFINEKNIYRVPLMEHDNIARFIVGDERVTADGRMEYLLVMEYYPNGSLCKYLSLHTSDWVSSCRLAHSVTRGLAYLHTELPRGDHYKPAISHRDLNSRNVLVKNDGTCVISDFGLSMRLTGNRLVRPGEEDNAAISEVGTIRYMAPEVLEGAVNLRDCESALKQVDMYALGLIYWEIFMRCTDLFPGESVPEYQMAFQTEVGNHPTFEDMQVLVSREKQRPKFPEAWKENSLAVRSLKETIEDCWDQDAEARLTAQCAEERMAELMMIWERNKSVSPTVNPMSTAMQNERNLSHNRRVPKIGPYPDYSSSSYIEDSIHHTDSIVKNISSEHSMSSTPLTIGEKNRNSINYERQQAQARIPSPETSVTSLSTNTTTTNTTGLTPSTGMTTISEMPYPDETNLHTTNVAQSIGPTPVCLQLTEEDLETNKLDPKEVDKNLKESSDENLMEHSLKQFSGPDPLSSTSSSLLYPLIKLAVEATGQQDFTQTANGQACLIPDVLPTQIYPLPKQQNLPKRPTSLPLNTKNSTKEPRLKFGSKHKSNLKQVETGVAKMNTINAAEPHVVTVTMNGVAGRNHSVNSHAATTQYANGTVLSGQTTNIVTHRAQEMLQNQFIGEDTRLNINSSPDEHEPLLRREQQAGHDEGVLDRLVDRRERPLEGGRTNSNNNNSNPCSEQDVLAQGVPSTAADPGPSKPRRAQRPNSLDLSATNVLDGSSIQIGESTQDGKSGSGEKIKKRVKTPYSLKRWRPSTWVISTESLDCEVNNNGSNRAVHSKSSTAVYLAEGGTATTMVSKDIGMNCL

[11] = biological target: T3, Calcium/calmodulin-dependent protein kinase type IV (Homo sapiens) (UniProt Q16566); experiment: CaMKIV(h) Eurofins kinase panel
T3 sequence (whole entry): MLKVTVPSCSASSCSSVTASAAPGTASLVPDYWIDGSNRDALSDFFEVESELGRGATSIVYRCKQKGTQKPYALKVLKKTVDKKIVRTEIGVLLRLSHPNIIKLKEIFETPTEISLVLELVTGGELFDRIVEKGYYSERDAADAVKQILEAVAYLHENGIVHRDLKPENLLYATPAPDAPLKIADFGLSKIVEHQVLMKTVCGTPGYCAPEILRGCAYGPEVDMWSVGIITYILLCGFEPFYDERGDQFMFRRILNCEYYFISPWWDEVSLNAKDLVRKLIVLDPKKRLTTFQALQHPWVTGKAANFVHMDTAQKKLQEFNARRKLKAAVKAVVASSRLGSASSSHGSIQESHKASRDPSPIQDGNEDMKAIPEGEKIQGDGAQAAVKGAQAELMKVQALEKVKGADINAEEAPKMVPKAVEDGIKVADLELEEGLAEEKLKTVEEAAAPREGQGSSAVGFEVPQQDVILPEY

[12] = biological target: Mitogen-activated protein kinase kinase kinase kinase 4 (Homo sapiens) (UniProt O95819); experiment: MAP4K4(h) Eurofins kinase panel
[13] = biological target: Serine/threonine-protein kinase SIK2 (Homo sapiens) (UniProt Q9H0K1); experiment: SIK2(h) Eurofins kinase panel

Measured: % residual kinase activity

SRSF protein kinase 3 (Homo sapiens), sequence (Q9UPE1 whole entry): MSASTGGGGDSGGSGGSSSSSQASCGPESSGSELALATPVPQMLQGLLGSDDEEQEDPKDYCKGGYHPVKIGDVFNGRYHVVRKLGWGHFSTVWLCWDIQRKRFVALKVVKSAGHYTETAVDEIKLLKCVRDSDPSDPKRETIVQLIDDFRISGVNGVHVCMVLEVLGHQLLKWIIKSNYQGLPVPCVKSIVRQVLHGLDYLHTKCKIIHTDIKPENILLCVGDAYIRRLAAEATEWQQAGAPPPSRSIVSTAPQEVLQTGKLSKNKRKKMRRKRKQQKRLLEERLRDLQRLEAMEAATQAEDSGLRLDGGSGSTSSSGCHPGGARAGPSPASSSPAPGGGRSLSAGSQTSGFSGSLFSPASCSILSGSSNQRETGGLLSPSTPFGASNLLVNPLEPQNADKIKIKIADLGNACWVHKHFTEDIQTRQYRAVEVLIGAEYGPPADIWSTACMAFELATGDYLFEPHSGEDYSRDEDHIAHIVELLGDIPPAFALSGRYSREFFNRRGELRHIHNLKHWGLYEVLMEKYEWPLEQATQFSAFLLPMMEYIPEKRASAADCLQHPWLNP
Dual specificity protein kinase CLK4 (Homo sapiens), sequence (Q9HAZ1 whole entry, looked up): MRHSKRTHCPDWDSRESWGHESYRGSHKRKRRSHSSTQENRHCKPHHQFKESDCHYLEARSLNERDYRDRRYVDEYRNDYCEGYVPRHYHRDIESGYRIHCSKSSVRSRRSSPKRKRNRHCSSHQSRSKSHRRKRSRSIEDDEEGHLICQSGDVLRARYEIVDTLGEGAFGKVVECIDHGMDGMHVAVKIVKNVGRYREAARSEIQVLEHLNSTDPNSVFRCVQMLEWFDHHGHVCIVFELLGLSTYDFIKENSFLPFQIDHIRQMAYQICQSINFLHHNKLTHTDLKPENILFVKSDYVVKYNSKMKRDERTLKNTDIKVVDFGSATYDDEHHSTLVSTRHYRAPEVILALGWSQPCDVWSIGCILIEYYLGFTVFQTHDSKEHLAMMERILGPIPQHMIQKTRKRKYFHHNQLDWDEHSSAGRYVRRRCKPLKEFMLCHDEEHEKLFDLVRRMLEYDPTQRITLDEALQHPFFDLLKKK
Serine/threonine-protein kinase PAK 6 (Homo sapiens), sequence (Q9NQU5 whole entry, looked up): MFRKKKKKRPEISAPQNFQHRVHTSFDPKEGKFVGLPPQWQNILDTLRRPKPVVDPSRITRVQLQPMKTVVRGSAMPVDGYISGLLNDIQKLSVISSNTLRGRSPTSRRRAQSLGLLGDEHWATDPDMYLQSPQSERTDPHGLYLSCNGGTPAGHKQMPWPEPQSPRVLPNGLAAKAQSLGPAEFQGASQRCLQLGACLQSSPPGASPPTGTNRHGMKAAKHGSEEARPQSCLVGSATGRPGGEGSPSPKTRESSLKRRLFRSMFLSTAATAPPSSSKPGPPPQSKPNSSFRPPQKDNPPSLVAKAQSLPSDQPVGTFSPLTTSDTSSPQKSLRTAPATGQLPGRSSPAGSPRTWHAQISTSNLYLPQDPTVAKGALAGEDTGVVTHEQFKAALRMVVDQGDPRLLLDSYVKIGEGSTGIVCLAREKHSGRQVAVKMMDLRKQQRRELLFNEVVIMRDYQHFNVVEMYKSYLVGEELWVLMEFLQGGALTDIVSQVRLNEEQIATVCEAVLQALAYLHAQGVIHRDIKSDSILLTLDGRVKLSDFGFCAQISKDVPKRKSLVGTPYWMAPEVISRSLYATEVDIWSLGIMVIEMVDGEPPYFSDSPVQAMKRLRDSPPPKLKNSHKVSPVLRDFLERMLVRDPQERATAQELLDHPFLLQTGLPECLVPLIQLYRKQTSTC
G protein-coupled receptor kinase 5 (Homo sapiens), sequence (P34947 whole entry, looked up): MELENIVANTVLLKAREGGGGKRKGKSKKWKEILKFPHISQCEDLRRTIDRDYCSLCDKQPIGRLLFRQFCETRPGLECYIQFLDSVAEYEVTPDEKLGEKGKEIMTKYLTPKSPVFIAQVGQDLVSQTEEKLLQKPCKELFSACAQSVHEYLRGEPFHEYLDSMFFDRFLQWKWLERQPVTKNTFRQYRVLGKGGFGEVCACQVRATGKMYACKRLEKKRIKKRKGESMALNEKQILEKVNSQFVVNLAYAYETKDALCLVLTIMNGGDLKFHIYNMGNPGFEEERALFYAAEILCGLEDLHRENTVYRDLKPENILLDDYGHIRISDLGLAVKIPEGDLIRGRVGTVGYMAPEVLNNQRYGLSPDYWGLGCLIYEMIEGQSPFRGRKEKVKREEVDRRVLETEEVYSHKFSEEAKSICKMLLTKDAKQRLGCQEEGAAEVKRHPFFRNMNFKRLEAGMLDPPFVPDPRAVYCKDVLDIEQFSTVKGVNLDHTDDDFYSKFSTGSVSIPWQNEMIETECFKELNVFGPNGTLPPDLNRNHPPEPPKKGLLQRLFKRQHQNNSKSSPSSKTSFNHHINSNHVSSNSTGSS
Tyrosine-protein kinase receptor UFO (Homo sapiens), sequence (P30530 whole entry): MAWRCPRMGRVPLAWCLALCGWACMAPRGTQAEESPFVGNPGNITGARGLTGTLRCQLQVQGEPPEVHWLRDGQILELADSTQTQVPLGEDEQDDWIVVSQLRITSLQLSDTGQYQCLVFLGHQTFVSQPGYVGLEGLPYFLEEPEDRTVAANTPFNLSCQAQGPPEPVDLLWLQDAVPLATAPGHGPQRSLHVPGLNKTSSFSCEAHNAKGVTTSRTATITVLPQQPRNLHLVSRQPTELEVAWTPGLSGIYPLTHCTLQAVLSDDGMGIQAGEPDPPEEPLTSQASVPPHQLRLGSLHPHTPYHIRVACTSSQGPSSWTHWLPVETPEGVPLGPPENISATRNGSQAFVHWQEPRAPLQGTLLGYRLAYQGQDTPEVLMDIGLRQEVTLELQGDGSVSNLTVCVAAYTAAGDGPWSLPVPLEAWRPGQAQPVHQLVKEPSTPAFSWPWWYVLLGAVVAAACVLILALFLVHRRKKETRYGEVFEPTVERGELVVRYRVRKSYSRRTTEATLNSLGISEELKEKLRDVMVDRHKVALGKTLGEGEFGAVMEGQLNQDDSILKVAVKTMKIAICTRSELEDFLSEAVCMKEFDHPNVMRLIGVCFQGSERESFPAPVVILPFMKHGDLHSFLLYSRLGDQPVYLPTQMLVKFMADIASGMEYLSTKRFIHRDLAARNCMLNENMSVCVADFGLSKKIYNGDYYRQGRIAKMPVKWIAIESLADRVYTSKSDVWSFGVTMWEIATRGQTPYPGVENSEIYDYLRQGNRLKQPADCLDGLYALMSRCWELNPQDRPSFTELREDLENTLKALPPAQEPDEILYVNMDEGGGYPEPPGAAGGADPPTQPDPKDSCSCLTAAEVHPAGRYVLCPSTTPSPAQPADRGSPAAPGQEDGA
Death-associated protein kinase 1 (Homo sapiens), sequence (P53355 whole entry, looked up): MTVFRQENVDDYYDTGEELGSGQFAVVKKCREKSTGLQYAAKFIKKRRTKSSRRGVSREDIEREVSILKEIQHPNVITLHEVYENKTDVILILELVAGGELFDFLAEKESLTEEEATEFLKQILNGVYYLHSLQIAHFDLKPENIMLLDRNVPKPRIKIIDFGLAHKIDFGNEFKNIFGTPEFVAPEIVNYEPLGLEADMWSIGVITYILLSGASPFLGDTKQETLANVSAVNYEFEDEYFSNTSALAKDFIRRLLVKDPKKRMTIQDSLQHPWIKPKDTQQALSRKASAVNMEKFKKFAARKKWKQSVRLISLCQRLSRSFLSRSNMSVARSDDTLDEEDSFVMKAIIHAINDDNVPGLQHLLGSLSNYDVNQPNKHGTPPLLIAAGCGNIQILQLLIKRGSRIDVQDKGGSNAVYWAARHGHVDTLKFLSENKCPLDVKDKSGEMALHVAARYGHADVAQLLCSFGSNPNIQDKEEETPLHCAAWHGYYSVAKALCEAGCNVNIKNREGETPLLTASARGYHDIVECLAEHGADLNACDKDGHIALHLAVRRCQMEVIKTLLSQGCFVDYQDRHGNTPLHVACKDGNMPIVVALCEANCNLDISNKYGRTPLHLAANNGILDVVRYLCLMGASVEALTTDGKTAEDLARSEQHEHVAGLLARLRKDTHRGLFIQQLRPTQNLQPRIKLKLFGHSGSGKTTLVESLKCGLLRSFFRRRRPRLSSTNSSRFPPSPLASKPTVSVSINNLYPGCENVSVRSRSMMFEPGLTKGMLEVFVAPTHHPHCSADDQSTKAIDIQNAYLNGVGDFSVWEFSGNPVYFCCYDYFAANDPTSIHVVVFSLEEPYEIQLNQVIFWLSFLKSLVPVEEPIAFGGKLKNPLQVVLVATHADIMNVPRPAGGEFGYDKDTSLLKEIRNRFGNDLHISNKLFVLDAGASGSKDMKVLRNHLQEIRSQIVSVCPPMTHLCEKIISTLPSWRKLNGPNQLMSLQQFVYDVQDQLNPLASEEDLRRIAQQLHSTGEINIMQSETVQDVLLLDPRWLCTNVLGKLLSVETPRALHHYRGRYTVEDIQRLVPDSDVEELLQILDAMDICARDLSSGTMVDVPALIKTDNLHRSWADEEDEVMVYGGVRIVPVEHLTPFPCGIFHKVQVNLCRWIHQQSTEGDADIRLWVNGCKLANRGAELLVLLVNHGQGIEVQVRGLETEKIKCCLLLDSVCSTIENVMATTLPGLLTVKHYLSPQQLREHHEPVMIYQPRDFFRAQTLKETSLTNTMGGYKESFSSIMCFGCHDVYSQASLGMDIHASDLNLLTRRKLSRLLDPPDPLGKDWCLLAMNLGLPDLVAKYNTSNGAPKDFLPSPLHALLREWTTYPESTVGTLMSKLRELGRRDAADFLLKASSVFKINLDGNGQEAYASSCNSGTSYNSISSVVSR

CCc1ccccc1C(=O)Nc1n[nH]c2c(C)c(F)c(C3C(C#N)=C(C)N(C)C(C)=C3C#N)cc12 [BAY-3827]
inactive: [1] 84% | [2] 98% | [3] 94% | [4] 39% | [5] 100% | [6] 100% | [7] 99% | [8] 86% | [9] 104% | [10] 104% | [11] 111% | [12] 91% | [13] 68%
